From US12357613B2, “Inhibitor for retinochoroidal disorders” (YAMAGUCHI UNIVERSITY, priority 2013, dated 2025)

Key:
[1] = test system: murine retinal pigment epithelial cells; assay: Test on inhibition of three-dimensional collagen gel atrophy in murine retinal pigment epithelial cell; assay type: cell-based, mouse; settings: 1 ng/ml TGF-B2; 0.01, 0.1 or 1 μM; gel diameter after 24 hours; FIG. 1
From the text: (Test on Inhibition of Three-Dimensional Collagen Gel Atrophy in Murine Retinal Pigment Epithelial Cell)
Murine retinal pigment epithelial cells were used to assess the inhibition effect of a tested compound on three-dimensional collagen gel atrophy in accordance with the method of Nishida et al (Investigative Ophthalmology & Visual Science 42: 1247-1253 (2001)). A subretinal sheet-like pigment epithelial cell comprising a retinal pigment epithelial cell from a mouse eyeball was collected and grown in primary culture. The cultured cell was detached and collected from a culture slide with 0.05% Trypsin-EDTA. After washing twice in a serum free medium (MEM: product number 11095; Gibco), a serum-free medium was added to make a cell suspension. Type I collagen (3 mg/ml: product number 637-00653; Nitta Gelatin Inc.), 10×MEM, reconstitution buffer (product number 635-00791; Nitta Gelatin Inc.), cell suspension (1.1×10^7 cells/ml in MEM), and water were mixed on ice at the volume ratio of 7:1:1:0.2:1.8. A culture dish coated with 1% BSA was inoculated with the mixture (0.5 ml), which was incubated for one hour at 37° C. to make a collagen gel. Then, 0.5 ml each of serum free media, to which 1 ng/ml of TGF-B2 (R&D) and 0, 0.01, 0.1, or 1 μM of the benzoic acid of the invention were added, was added onto collagen gels and incubated at 37° C. The diameter of gels was measured after 24 hours. […]

[2] = test system: murine subretinal scar model; assay: Test on inhibition of murine subretinal scar formation; assay type: in vivo, mouse C57BL/6; settings: 7 days after injection
From the text: (Test on Inhibition of Murine Subretinal Scar Formation)
A murine subretinal scar model was produced to study whether the benzoic acid of the invention has an effect of inhibiting subretinal scar formation. A subretinal scar model in a mouse was produced by the method shown below in accordance with the method of Young-joon et al (Investigative Ophthalmology & Visual Science, 52, 6089-6095([…])).
(Production of Murine Subretinal Scar Model)
First, laser was irradiated (0.05 seconds, 200 mW, 532 nm) onto one location on the posterior pole of fundus of mouse C57BL/6 (purchased from SLC) to destroy the Bruch's membrane, which enabled infiltration of inflammatory cells from the choroid as well as creation of air bubbles subretinally.
A 33G needle was then inserted from pars plana. 0.5 μl of 4×10^7 ml thioglycollate elicited peritoneal macrophage and 1 μg, 5 μg, or 50 μg of the benzoic acid of the invention were subretinally injected. For the control, the benzoic acid of the invention was not injected (0 μg).
The subretinal area was observed and subretinal scar region was measure 7 days after injection of the macrophage and the benzoic acid of the invention described above.

SMILES: CC1(C)CCC(C)(C)c2cc(Cn3cccn3)c(/C=C/c3ccc(C(=O)O)cc3)cc21 [benzoic acid of the invention, (E)-4-(2-{3-[(1H-pyrazole-1-yl)methyl]-5,5,8,8-tetramethyl-5,6,7,8-tetrahydronaphthalene-2-yl}vinyl)benzoic acid]
- collagen atrophy due to TGF (diameter of collagen gel) [1]: can inhibit collagen atrophy due to TGF
- subretinal scar region (fibrillation region) ([2]; 1 μg, 5 μg or 50 μg subretinally injected with macrophages, FIG. 2B): narrows as the amount of injection of the benzoic acid of the invention increases
- formation of a subretinal scar (subretinal observation) ([2]; 50 μg subretinally injected with macrophages, in comparison to the control, FIG. 2A): formation of a scar was inhibited
